Results: article PMC7226417, “Utilizing Genome-Wide mRNA Profiling to Identify the Cytotoxic Chemotherapeutic Mechanism of Triazoloacridone C-1305 as Direct Microtubule Stabilization” (Cancers, 2020)

Tested on: T1, tubulin (α/β tubulin dimer)
T1 construct: with α- and β-tubulin heterodimer
Assay: in vitro tubulin polymerization assay, turbidity at […] nm (stabilization of polymerization)
Type: biochemical

EC50: 2740 nM
SMILES: CN(C)CCCNc1ccc2nnn3c4ccc(O)cc4c(=O)c1c23 [C-1305, 5-{[3-(Dimethylamino)propyl]amino}-8-hydroxy-6H-[1,2,3]triazolo[4,5,1-de]acridin-6-one]
